Where a name gives a salt, the structure may show the parent alone.
Target: adenosine A2A receptor (Homo sapiens, UniProt P29274)
Experiment: Adenosine A2A receptor agonist assay (method of Murphree et al.)
Type: binding
Details: method described by Murphree et al., Mol Pharmacol, Vol. 61, pp. 455-462 (2002)
From the text: Compounds of formula (I) and their pharmaceutically acceptable salts are useful as pharmaceuticals. In particular, they activate the adenosine A2A receptor, i.e., they act as A2A receptor agonists.

Sequence of adenosine A2A receptor (P29274 whole entry): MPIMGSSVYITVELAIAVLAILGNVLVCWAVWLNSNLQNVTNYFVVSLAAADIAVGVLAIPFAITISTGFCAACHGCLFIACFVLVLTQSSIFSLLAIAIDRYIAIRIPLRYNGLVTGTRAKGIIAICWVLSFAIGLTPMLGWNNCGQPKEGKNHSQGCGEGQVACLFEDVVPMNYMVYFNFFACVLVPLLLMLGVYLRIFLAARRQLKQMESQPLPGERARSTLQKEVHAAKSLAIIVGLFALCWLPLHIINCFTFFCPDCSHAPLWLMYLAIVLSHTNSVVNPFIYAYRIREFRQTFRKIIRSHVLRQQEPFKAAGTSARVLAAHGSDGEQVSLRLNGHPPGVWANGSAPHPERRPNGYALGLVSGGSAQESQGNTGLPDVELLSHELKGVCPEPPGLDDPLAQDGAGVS

Row | Compound | Ki
1 | O=C(N[C@@H]1CCNC1)N[C@@H]1CCN(c2nc(NCC(c3ccccc3)c3ccccc3)c3ncn([C@@H]4O[C@H](CO)[C@@H](O)[C@H]4O)c3n2)C1 [Example 11, 1-{(R)-1-[9-(2R,3R,4S,5R)-3,4-Dihydroxy-5-hydroxymethyl-tetrahydro-furan-2-yl)-6-(2,2-diphenyl-ethylamino)-9H-purin-2-yl]-pyrrolidin-3-yl}-3-(R)-pyrrolidin-3-yl-urea trifluoroacetate] | 12 nM
2 | CCn1nnc([C@H]2O[C@@H](n3cnc4c(NCC(c5ccc(O)cc5)c5ccc(O)cc5)nc(N5CC[C@@H](NC(=O)c6ccc(N7CCOCC7)nc6)C5)nc43)[C@H](O)[C@@H]2O)n1 [Example 77, N-((R)-1-{6-[2,2-bis-(4-Hydroxy-phenyl)-ethylamino]-9-[(2R,3R,4S,5R)-5-(2-ethyl-2H-tetrazol-5-yl)-3,4-dihydroxy-tetrahydro-furan-2-yl]-9H-purin-2-yl}-pyrrolidin-3-yl)-6-morpholin-4-yl-nicotinamide trifluoroacetate] | 6 nM
